Assay results as given in patent publication US20260248763A1 (BIO GENUINE (SHANGHAI) BIOTECH CO., LTD, priority 2023, published 2026).
Like-named read-outs stand apart in the source and are kept apart here.

What was measured:
[1] = Pharmacokinetic determination in SD rats; format: in vivo; details: rat, female SD rats, plasma; for AUC(0-t): read-out: Area under the curve AUC0-t; for clearance: read-out: Clearance Cl; for half-life: read-out: Half-life T1/2 (converted)
Method: Test Example 3: Pharmacokinetic Determination in SD Rats
In this study, female SD rats were selected as test animals. The LC/MS/MS method was used to quantitatively determine the plasma drug concentrations of the test compounds at different time points after intravenous injection (2 mg/kg) or oral administration (5 mg/kg) in rats, so as to evaluate the pharmacokinetic profile of the test drugs in rats.
(§1) The example compounds of the present disclosure, made in house.
(§2) SD rats (female, 180-220 g, 6-8 weeks old, purchased from Beijing Vital River Laboratory Animal Technology Co., Ltd., with animal production license number SCXK (Beijing) 2021-0006).
Vehicle for intravenous administration: 5% DMSO+10% Solutol+85% Saline.
Vehicle for oral administration: 5% DMSO+95% PEG400.
The test compound, formulated as a clear solution or suspension, was administered to overnight-fasted SD rats via tail vein injection or oral gavage. For intravenous administration, blood samples (0.25 mL) were collected via jugular vein puncture at pre-dose (0 h) and 0.083, 0.25, 0.5, 1, 2, 4, 6, 8, and 24 h post-dose. The samples were placed into sodium heparin anticoagulant tubes, and the mixture was vortexed thoroughly and centrifuged at 6,000 rpm for 3 minutes at 4° C. For oral gavage, blood samples were collected via jugular vein puncture at pre-dose (0 h) and 0.083, 0.25, 1, 2, 4, 6, 8, and 24 h post-dose. The samples were placed into sodium heparin anticoagulant tubes, and the mixture was vortexed thoroughly and centrifuged at 6,000 rpm for 3 minutes. Plasma drug concentrations were determined using the LC-MS/MS method, and the relevant pharmacokinetic parameters were calculated using the non-compartmental model with linear-log trapezoidal method in Phoenix WinNonlin 8.2.0 pharmacokinetic software.

[2] = Blood-brain distribution determination in SD rats; format: in vivo; details: female SD rats, oral, 5 mg/kg; for Kp / AUC(0-t): rat; for Kp: brain/plasma, read-out: Brain/plasma exposure ratio; for AUC(0-t): plasma, read-out: Plasma area under the curve AUC0-t
Method: Test Example 4: Blood-Brain Distribution Determination in SD Rats
In this study, female SD rats were selected as test animals. The LC/MS/MS method was used to quantitatively determine the drug concentrations of the test compounds in plasma and brain tissues at three different time points (0.5 h, 2 h, 4 h or 6 h) after oral administration (5 mg/kg or 10 mg/kg) in rats, so as to evaluate the pharmacokinetic profile of the test drugs in rats.
as §1, §2
Vehicle for oral administration: 5% DMSO+95% PEG400 or a mixture of (50% Labrasol+50% Water).
The test compound, formulated as a clear solution or suspension, was administered to overnight-fasted SD rats via oral gavage. For oral gavage, blood samples (0.25 mL) were collected via jugular vein puncture at pre-dose (0 h) and 0.5 h, 2 h, 4 h or 6 h post-dose. The samples were placed into sodium heparin anticoagulant tubes. After collection, the blood samples were placed on wet ice and centrifuged within 1 hour to separate the plasma. The separated plasma was stored frozen in a −80° C. freezer. After blood collection, the animals were euthanized by cervical dislocation. The whole brain tissue was dissected out. The collected brain tissue was first rinsed with physiological saline, blotted dry with absorbent paper, and then stored frozen in a −80° C. freezer. Prior to analysis, the brain tissue samples and plasma samples were taken out from the −80° C. freezer. After the brain tissue samples were completely thawed, a given amount of brain tissue was weighed, and 50% methanol/water was added for homogenization. Drug concentrations in plasma and brain tissues were determined using the LC-MS/MS method, and the relevant pharmacokinetic parameters were calculated using the non-compartmental model with linear-log trapezoidal method in Phoenix WinNonlin 8.2.0 pharmacokinetic software.

Row | Structure (SMILES) | AUC(0-t) ([1]; 2 mg/kg, IV (2 mpk)) [ng·h/mL] | AUC(0-t) ([1]; 5 mg/kg, PO (5 mpk)) [ng·h/mL] | clearance ([1]; 2 mg/kg, IV (2 mpk)) [mL/min/kg] | half-life ([1]; 2 mg/kg, IV (2 mpk)) [h] | half-life ([1]; 5 mg/kg, PO (5 mpk)) [h] | Brain tissue area under the curve AUC0-t [2] [ng·h/g] | Kp [2] | AUC(0-t) [2] [ng·h/mL]
1 | CO/N=C1/C[C@@H](CO)N(C(=O)c2ccc(-c3cccc(C#N)c3C)cc2)C1 [Example C0058, (S, Z)-4′-(2-(Hydroxymethyl)-4-(methoxyimino)pyrrolidine-1-carbonyl)-2-methyl-[1,1′-biphenyl]-3-carbonitrile] | 4640 | 11400 | 7.4 | 3 | 3.11 | 1109 | 0.32 | 3520
2 | CO/N=C1/C[C@@H]([C@@H](C)O)N(C(=O)c2ccc(-c3cccc(C#N)c3C)cc2)C1 (single isomer, unassigned) [Example C0112] |  |  |  |  |  | 818 | 0.52 | 1570
3 | CO/N=C1/C[C@@H](CO)N(C(=O)c2ccc(-c3cccc(C#N)c3Cl)cc2)C1 [Example A0203, 2-Chloro-3-(4-[(2S, 4Z)-2-(hydroxymethyl)-4-(methoxyimino)pyrrolidine-1-carbonyl]phenyl)benzonitrile] | 7160 | 16000 | 4.66 | 5.23 | 5.97 | 2579 | 0.39 | 6670

The next lines start with the values.

Row | AUC(0-t) ([1]; 2 mg/kg, IV (2 mpk)) [ng·h/mL] | AUC(0-t) ([1]; 5 mg/kg, PO (5 mpk)) [ng·h/mL] | clearance ([1]; 2 mg/kg, IV (2 mpk)) [mL/min/kg] | half-life ([1]; 2 mg/kg, IV (2 mpk)) [h] | half-life ([1]; 5 mg/kg, PO (5 mpk)) [h] | Brain tissue area under the curve AUC0-t [2] [ng·h/g] | Kp [2] | AUC(0-t) [2] [ng·h/mL] | Structure (SMILES)
4 |  |  |  |  |  | 169 | 0.08 | 2050 | CO/N=C1/C[C@@H](CO)N(C(=O)c2ccc(-c3cc(F)cc(C#N)c3C)c3c2OCCO3)C1 [Example C0152, (S,Z)-5-Fluoro-3-(8-(2-(hydroxymethyl)-4-(methoxyimino)pyrrolidine-1-carbonyl)-2,3-dihydrobenzo[b][1,4]dioxin-5-yl)-2-methylbenzonitrile]
5 |  |  |  |  |  | 150 | 0.1 | 1460 | CON=C1CC(CO)N(C(=O)c2ccc(-c3cccc(C#N)c3C)c3c2OCO3)C1 (single isomer, unassigned) [Example C0099]
